Data as given in article PMC9501014, “Amaryllidaceae-Type Alkaloids from Pancratium maritimum: Apoptosis-Inducing Effect and Cell Cycle Arrest on Triple-Negative Breast Cancer Cells” (Molecules, 2022).
Read-outs that look alike come from different tables or passages of the source.

What was measured:
MDA-MB-231 cells [1] = assay: Sulforhodamine B antiproliferative assay, MDA-MB-231; assay type: cell-based, human; conditions: for IC50: sulforhodamine B assay, 48 h of treatment, read-out: IC50 MDA-MDB-231 (A); for SI E/A / SI D/A: selectivity index; for SI E/A: HFF-1 vs MDA-MB-231; for SI D/A: MCF12A vs MDA-MB-231
Description: (§1) The antiproliferative effect of the isolated compounds (1–11) was investigated by the sulforhodamine B assay against human triple-negative breast cancer cell lines (MDA-MB-468 and MDA-MB-231) and breast ductal carcinoma cells (MCF-7) and the non-tumorigenic fibroblast (HFF-1) and breast cell lines (MCF12A). The IC50 values were determined after 48 h of treatment (Table 1).
(§2) Human breast adenocarcinoma MDA-MB-231, MDA-MB-468, and MCF-7 cell lines and non-tumorigenic foreskin fibroblast (HFF-1) and breast (MCF12A) cell lines were purchased from American Type Culture Collection (ATCC, Rockville, MD, USA). All cancer cell lines, except MCF12A, were routinely cultured in RPMI-1640 medium with glutamine from Corning (VWR, Carnaxide, Portugal) supplemented with 10% fetal bovine serum (FBS) from Biowest (Labclinics, Barcelona, Spain). MCF12A cells were cultured in a 1:1 mixture of Dulbecco’s modified Eagle’s medium and Ham’s F12 medium, 20 ng/mL human epidermal growth factor, 100 ng/mL cholera toxin, 0.01 mg/mL bovine insulin, and 500 ng/mL hydrocortisone and supplemented with 10% FBS. All cells were maintained in a humidified incubator at 37 °C with 5% CO2. All cells were routinely tested for mycoplasma contamination using the MycoAlertTM PLUS detection kit (Lonza, Basel, Switzerland).
(§3) Human cell lines were seeded in 96-well plates at a density of 5.0 × 10^3 (MDA-MB-231, MCF-7, HFF-1, and MCF12A) and 7.5 × 10^3 (MDA-MB-468) cells/well and allowed to adhere for 24 h. Cells were treated with serial dilutions of compounds (ranging from 0.1 to 40 μM) for an additional 48 h. Effect on cell proliferation was measured by sulforhodamine B assay, as described in [33], and the half-maximal inhibitory concentration (IC50) was then determined for each cell line using the GraphPad Prism software version 7.0 (La Jolla, CA, USA).

MDA-MB-468 cells = assay: Sulforhodamine B antiproliferative assay, MDA-MB-468; assay type: cell-based, human; conditions: for IC50: sulforhodamine B assay, 48 h of treatment; for SI E/B / SI D/B: selectivity index; for SI E/B: HFF-1 vs MDA-MB-468; for SI D/B: MCF12A vs MDA-MB-468
Description: as §1, §2, §3

MCF-7 cells = assay: Sulforhodamine B antiproliferative assay, MCF-7; assay type: cell-based, human; conditions: for IC50: sulforhodamine B assay, 48 h of treatment, read-out: IC50 MCF-7 (C); for SI E/C / SI D/C: selectivity index; for SI E/C: HFF-1 vs MCF-7; for SI D/C: MCF12A vs MCF-7
Description: as §1, §2, §3

MCF12A cells = assay: Sulforhodamine B antiproliferative assay, non-tumorigenic breast MCF12A; assay type: cell-based; conditions: Homo sapiens, MCF-12A, 48 h of treatment, read-out: IC50 MCF12A (D)
Description: as §1, §2, §3

HFF-1 cells = assay: Sulforhodamine B antiproliferative assay, non-tumorigenic fibroblast HFF-1; assay type: cell-based; conditions: Homo sapiens, 48 h of treatment, read-out: IC50 HFF-1 (E)
Description: as §1, §2, §3

[2] = tested on: breast cancer cell lines (MDA-MB-231, MDA-MB-468, MCF-7); assay: Sulforhodamine B assay, all breast cancer cell lines; assay type: cell-based; conditions: Homo sapiens, read-out: IC50 values against all breast cancer cell lines
Description: Aiming to find Amaryllidaceae alkaloids against breast cancer, including the highly aggressive triple-negative breast cancer, the phytochemical study of Pancratium maritimum was carried out. Several Amaryllidaceae-type alkaloids, bearing scaffolds of the haemanthamine-, homolycorine-, lycorine-, galanthamine-, and tazettine-type were isolated (3–11), along with one alkamide (2) and a phenolic compound (1). The antiproliferative effect of compounds (1–11) was evaluated by the sulforhodamine B assay against triple-negative breast cancer cell lines MDA-MB-231 and MDA-MB-468, breast cancer cells MCF-7, and the non-malignant fibroblast (HFF-1) and breast (MCF12A) cell lines. […] The homolycorine-type alkaloid 7 was selected for further investigation in MDA-MB-231 cells. In the annexin-V assay, compound 7 increased cell death by apoptosis, which was substantiated, in western blot analyses, by the increased expression of the pro-apoptotic protein Bax, and the decreased expression of the anti-apoptotic protein Bcl-xL. Consistently, it further stimulated mitochondrial reactive oxygen species (ROS) generation. The antiproliferative effect of compound 7 was also associated with G2/M cell cycle arrest, which was supported by an increase in the p21 protein expression levels.
as §3

MDA-MB-231 cells [3] = tested on: MDA-MB-231 cells; design: method as in PMID 28756149; conditions: previous studies ref 30; cited from earlier work
[4] = range over the four alkaloids and MDA-MB-231, MDA-MB-468, MCF-7

SMILES | IC50 (MDA-MB-231 cells [1]; Homo sapiens, MDA-MB-231, 48 h) [nM] | SI E/A (MDA-MB-231 cells [1]) | SI D/A (MDA-MB-231 cells [1]) | SI E/B (MDA-MB-468 cells) | SI D/B (MDA-MB-468 cells) | SI E/C (MCF-7 cells) | IC50 (MCF12A cells) [nM] | IC50 (HFF-1 cells) [nM] | also measured
COc1cc(O)c(C(C)=O)c(OC)c1 [Compound 1, 4,6-dimethoxy-2-hydroxy acetophenone] | > 40000 |  |  |  |  |  |  |  | 
COc1cc(/C=C/C(=O)NCCc2ccc(O)cc2)ccc1O [Compound 2, N-trans-feruloyl-tyramine] | > 40000 |  |  |  |  |  |  |  | 
CO[C@@H]1C=C[C@@]23c4cc5c(cc4[C@@H](O)N(C[C@H]2O)[C@H]3C1)OCO5 [Compound 3, haemanthidine] | 4880 | 0.56 | 1.02 | 0.78 | 1.42 | 1.01 | 5000 ± 500 | 2700 ± 150 | IC50 (MDA-MB-231 cells [1]): 4900 ± 1160 nM; IC50 (MDA-MB-468 cells; Homo sapiens, MDA-MB-468, 48 h): 3500 ± 300 nM; IC50 (MCF-7 cells; Homo sapiens, MCF7, 48 h): 2700 ± 100 nM; SI D/C (MCF-7 cells): 1.85; IC50 [2, 4]: 730 to 16300 nM; antiproliferative activity against MDA-MB-231 breast cancer cells (MDA-MB-231 cells [3]): antiproliferative activity
CN1CCC2=C[C@H](O)C3OC(=O)c4cc5c(cc4C3C21)OCO5 (stereo partly drawn) [Compound 4, hippeastrine] | 24700 ± 4300 |  |  |  |  |  |  |  | 
O[C@H]1[C@H]2c3cc4c(cc3CN3CCC(=C[C@@H]1O)[C@H]23)OCO4 [Compound 5, lycorine] | 920 | 1.41 | 3.26 | 0.91 | 2.11 | 1.78 | 3000 ± 300 | 1300 ± 300 | IC50 (MDA-MB-231 cells [1]): 900 ± 200 nM; IC50 (MDA-MB-468 cells; Homo sapiens, MDA-MB-468, 48 h): 1420 nM; IC50 (MDA-MB-468 cells): 1400 ± 10 nM; IC50 (MCF-7 cells; Homo sapiens, MCF7, 48 h): 730 nM; IC50 (MCF-7 cells): 700 ± 10 nM; IC50 [2, 4]: 730 to 16300 nM; antiproliferative activity against MDA-MB-231 breast cancer cells (MDA-MB-231 cells [3]): antiproliferative activity
COc1ccc2c3c1O[C@H]1C[C@@H](O)C=C[C@@]31C(O)CN(C)C2 (stereo partly drawn) [Compound 6, 11α-hydroxygalanthamine] | > 40000 |  |  |  |  |  |  |  | 
COc1ccc2c3c1O[C@H]1C[C@H](O)C=C[C@@]31CCN(C)C2 [Compound 8, epi-galanthamine] | > 40000 |  |  |  |  |  |  |  | 
COc1cc2c(cc1O)C(=O)OC1CC=C3CCN(C)C3C21 (stereo not drawn) [Compound 9, 8-O-demethylhomolycorine] | > 40000 |  |  |  |  |  |  |  | 
CO[C@@H]1C=C[C@@]23c4cc5c(cc4CO[C@]2(O)CN(C)[C@H]3C1)OCO5 [Compound 10, tazettine] | 39000 ± 1410 |  |  |  |  |  |  |  | 
COC1C=CC23c4cc5c(cc4CN(CC2O)C3C1)OCO5 (stereo not drawn) [Compound 11, haemanthamine] | 3950 | 0.68 | 1.64 | 0.71 | 1.71 | 1.7 | 6500 ± 1100 | 2700 ± 720 | IC50 (MDA-MB-231 cells [1]): 3900 ± 970 nM; IC50 (MDA-MB-468 cells; Homo sapiens, MDA-MB-468): 3800 ± 400 nM; IC50 (MCF-7 cells; Homo sapiens, MCF7): 1600 ± 100 nM; IC50 [2]: 730 to 16300 nM; antiproliferative activity against MDA-MB-231 breast cancer cells (MDA-MB-231 cells [3]): antiproliferative activity
COc1cc([C@@H]2c3cc4c(cc3[C@@H](O[C@@H]3O[C@@H]5CO[C@@H](C)O[C@H]5[C@H](O)[C@H]3O)[C@H]3COC(=O)[C@H]23)OCO4)cc(OC)c1O [Etoposide, reference compound] | 2900 ± 100 | 1.31 | 0.79 | 2.23 | 1.35 | 1.23 | 2300 ± 130 | 3800 ± 90 | IC50 (MDA-MB-468 cells; Homo sapiens, MDA-MB-468, 48 h): 1700 ± 50 nM; IC50 (MCF-7 cells; Homo sapiens, MCF7, 48 h): 3100 ± 50 nM; SI D/C (MCF-7 cells): 0.74
